Source: the METLIN SMRT retention time set (Domingo-Almenara et al. 2019)

Experiment: gradient 5% acetonitrile 3 min, to 50% in 2 min, to 85% in 15 min, held 3 min, 100 µL/min
Conditions: column: Zorbax Extend-C18 2.1 x 50 mm; eluents: water / acetonitrile, 0.1% formic acid
In short: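 Mixtures of ~100 pure standards were chromatographed on a Zorbax Extend-C18 column (2.1 × 50 mm, 1.8 μm) at 100 μL/min using water and acetonitrile, each with 0.1% formic acid. Detection used a quadrupole time-of-flight mass spectrometer in positive and negative ionization mode, and data collection spanned 3 months. Retention time was obtained from adduct peaks picked computationally and each checked manually.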

Structure (SMILES) | RP-LC retention time [s]
O=C(Cc1cccs1)N1CCN(c2ccc(=O)n(-c3cccc(Cl)c3)n2)CC1 | 822
COc1ccc(NC(=O)N2CCC3(C2)C(=O)Nc2ccc(OC)cc23)c(OC)c1 (configuration not stated) | 715
CC(C)c1noc(C2(NC(=O)c3ccc(C(F)(F)F)cc3)CCCCC2)n1 | 1130
Cc1cnc(C(=O)NC2C[C@H]3CC[C@@H](C2)N3C(=O)c2ccoc2)cn1 (some centres not stated) | 601
COc1ccccc1CN1CC(F)(F)C[C@H]1COc1ccncc1 | 623
CCN1CCN(C(=O)c2nc3ccccn3c2-c2ccc(Cl)cc2)CC1 | 591
Cc1ccc(Nc2c(-c3cccc(O)c3)nc3cnccn23)cc1Br | 834
COc1ccc(OC)c(NC(=O)N2CCc3c(c(C(=O)N4CCCC4)nn3C)C2)c1 | 718
Cc1ccc2c(=O)cc(C(=O)NCC(c3ccccc3)N(C)C)oc2c1C (configuration not stated) | 636
O=C(c1noc2c1CCCC2)N1CCc2ccccc2C1 | 923
CCn1cc(-c2nc(C)c(C(=O)N3CCN(c4ccccc4)CC3)s2)c2cccnc21 | 994
O=C(Cc1cccs1)NCCS(=O)(=O)N1CCc2ccccc2C1 | 764
COc1cccc(NC(=O)CN2CCc3[nH]c4c(OC)ccc(Cl)c4c(=O)c3C2)c1 | 610
CCN1C(=O)C2CCC(=O)N2c2ccc(C(=O)NC3CCCC3)cc21 (configuration not stated) | 692
CCOC(=O)c1nc(NCc2ccccc2OCC)c2c(C)noc2n1 | 988
COc1ccccc1CC(=O)Nc1cnc(-c2cccnc2)nc1 | 663
O=C(c1ccccn1)N1CCCC1c1nc(-c2ccc(F)cc2F)no1 (configuration not stated) | 832
COc1cccc2cc(C(=O)Nc3nc4c(s3)CN(S(=O)(=O)C3CC3)CC4)oc12 | 811
OC[C@@H]1CNC[C@H]1C1CCN(Cc2ccc(Cl)c(F)c2)CC1 | 542

The remaining lines, values ahead:

RP-LC retention time [s] | Structure (SMILES)
950 | Cc1ccc(-n2ccc(=O)c(-c3nc(-c4ccccc4Br)no3)n2)cc1
733 | O=C(c1ccc2c(c1)Sc1ncccc1C(=O)N2C1CC1)N1CCCCC1
686 | CCC(C)NC(=O)C1CCN(c2cnc(N3CCCCC3)nc2)CC1 (configuration not stated)
669 | O=C(CSc1ccc(-c2ccccn2)nn1)N1CCCCC1
824 | Cc1nnc(-c2nnc(N3CCC(C)CC3)c3ccccc23)o1
1020 | Cc1nc(-c2csc(S(=O)(=O)N3CCCC(C(=O)Nc4cccc(Cl)c4C)C3)c2)no1 (configuration not stated)
602 | CCn1c(CCNC(=O)c2ccccc2F)nc2cccnc21
806 | COc1ccccc1Nc1c(-c2ccc(N3CCOCC3)cc2)nc2cnccn12
693 | Cc1cc(Nc2ccccc2)nc(N2CCN(C(=O)Nc3ccccc3)CC2)n1
782 | Cc1ccc(CNC(=O)c2ccc(-c3cncnc3)nc2)cc1C
746 | O=C(NCCCc1ccccc1)C(=O)NCc1n[nH]c(=O)c2ccccc12
933 | O=C1CCN([C@@H]2O[C@H](CO)[C@@H](O)[C@H]2O)C(=O)N1
659 | CCc1ccc(C(=O)N2CCc3[nH]nc(C(=O)N(C)C)c3C2)cc1
746 | COc1ccc(-c2nnc(-c3cccnc3NCCCN3CCCC3=O)o2)cc1
737 | Cc1oc(-c2[nH]ncc2C(=O)N2CCCC2)cc1S(=O)(=O)NCc1ccc(Cl)cc1
1080 | Cc1ccc2c(c1)N(CCC(C)C)N=C(C(=O)N1CCCCC1)S2(=O)=O
1090 | Cc1cc(C)c(S(=O)(=O)N2CCc3c(c(-c4nnc(-c5ccc(F)cc5)o4)nn3C)C2)c(C)c1
612 | Cc1cc(Cl)ccc1NC(=O)N1CCC2(CC1)c1nccn1CCN2C
